According to the supplement of paper PMC13380429:

Tests used:
Details in all cases: 72 h
U2OS [1] = assay: relative viability EC50 (midpoint between 100% and the lowest measured viability); higher = less toxic
Caco-2 [2] = assay: as above
Vero E6 [3] = assay: as above
HepG2 [4] = assay: as above
Calu-3 [5] = assay: as above
U2OS [6] = assay: drug sensitivity score (DSS) for viability; higher = more toxic; extreme values may be limits of the assay
Caco-2 [7] = assay: as above
Vero E6 [8] = assay: as above
HepG2 [9] = assay: as above
Calu-3 [10] = assay: as above
U2OS [11] = assay: cell viability relative to DMSO; higher = less toxic
Caco-2 [12] = assay: as above
Vero E6 [13] = assay: as above
HepG2 [14] = assay: as above
Calu-3 [15] = assay: as above

Compound	relative viability EC50 (U2OS [1])	relative viability EC50 (Caco-2 [2])	relative viability EC50 (Vero E6 [3])	relative viability EC50 (HepG2 [4])	relative viability EC50 (Calu-3 [5])	drug sensitivity score (U2OS [6])	drug sensitivity score (Caco-2 [7])	drug sensitivity score (Vero E6 [8])	drug sensitivity score (HepG2 [9])	drug sensitivity score (Calu-3 [10])	cell viability (U2OS [11]; 1 nM)	cell viability (U2OS [11]; 10 nM)	cell viability (U2OS [11]; 100 nM)	cell viability (U2OS [11]; 1000 nM)	cell viability (U2OS [11]; 10000 nM)	cell viability (Caco-2 [12]; 1 nM)	cell viability (Caco-2 [12]; 10 nM)	cell viability (Caco-2 [12]; 100 nM)	cell viability (Caco-2 [12]; 1000 nM)	cell viability (Caco-2 [12]; 10000 nM)	cell viability (Vero E6 [13]; 1 nM)	cell viability (Vero E6 [13]; 10 nM)	cell viability (Vero E6 [13]; 100 nM)	cell viability (Vero E6 [13]; 1000 nM)	cell viability (Vero E6 [13]; 10000 nM)	cell viability (HepG2 [14]; 1 nM)	cell viability (HepG2 [14]; 10 nM)	cell viability (HepG2 [14]; 100 nM)	cell viability (HepG2 [14]; 1000 nM)	cell viability (HepG2 [14]; 10000 nM)	cell viability (Calu-3 [15]; 1 nM)	cell viability (Calu-3 [15]; 10 nM)	cell viability (Calu-3 [15]; 100 nM)	cell viability (Calu-3 [15]; 1000 nM)	cell viability (Calu-3 [15]; 10000 nM)
Clc1cccc(N2CCNCC2)c1 [mCPP]	> 10 µM	> 10 µM	> 10 µM	> 10 µM	> 10 µM	0	0	0	0	0	99.8%	93.3%	103%	97.1%	93.9%	88.9%	97%	96.1%	92.4%	98.4%	88.9%	103%	96.7%	100%	106%	97.7%	95.3%	96%	100%	105%	91.4%	102%	104%	104%	100%
CN1CCCCC1CCN1c2ccccc2Sc2ccc([S+](C)[O-])cc21 (stereo not given) [mesoridazine]	> 10 µM	> 10 µM	> 10 µM	> 10 µM	> 10 µM	0	0	0	0	0	95.3%	101%	96.7%	97.5%	101%	93.4%	93.9%	90.5%	97%	110%	93.2%	96.7%	91%	90.1%	96.5%	108%	93.2%	120%	106%	111%	101%	108%	97.7%	105%	120%
CC(C)NCC(O)c1cc(O)cc(O)c1 (stereo not given) [metaproterenol]	> 10 µM	> 10 µM	> 10 µM	> 10 µM	> 10 µM	0	0	0	0	0	98.3%	96.8%	98.9%	98.7%	102%	93.4%	90.8%	104%	106%	95.1%	94.4%	95.6%	92.7%	94.7%	113%	98.6%	110%	108%	108%	108%	101%	97.2%	106%	108%	98%
C[C@](N)(Cc1ccc(O)c(O)c1)C(=O)O [methyldopa]	> 10 µM	> 10 µM	> 10 µM	> 10 µM	> 10 µM	0	0	0	0	0	101%	103%	96.7%	97.8%	93.1%	97.5%	103%	89.8%	106%	99.9%	99.2%	102%	94.5%	97.9%	106%	94.1%	97.4%	104%	92.3%	108%	96.9%	102%	101%	98.9%	93.6%
CC1(C)S[C@@H]2[C@H](NC(=O)[C@H](NC(=O)N3CCN(S(C)(=O)=O)C3=O)c3ccccc3)C(=O)N2[C@H]1C(=O)O [mezlocillin]	> 10 µM	> 10 µM	> 10 µM	> 10 µM	> 10 µM	0	1.1	0	0	0	96.4%	97.9%	92.7%	103%	94.8%	100%	102%	87.8%	89.4%	96.3%	99.6%	107%	99.5%	100%	100%	99.6%	94.2%	91.1%	98.6%	104%	93.8%	88.9%	93.1%	100%	94.1%
O=c1c(O)c(-c2ccc(O)cc2O)oc2cc(O)cc(O)c12 [morin]	> 10 µM	> 10 µM	> 10 µM	> 10 µM	> 10 µM	0	0	0	0	0	101%	93.7%	104%	97.3%	102%	102%	96.5%	96.6%	102%	88.6%	94.9%	95.8%	99%	98.4%	95.9%	87.2%	103%	98.9%	97.4%	98.9%	113%	99.5%	96.3%	91.6%	102%
C[C@H]1O[C@@H](Oc2c(-c3cc(O)c(O)c(O)c3)oc3cc(O)cc(O)c3c2=O)[C@@H](O)[C@@H](O)[C@@H]1O [myricitrin]	> 10 µM	> 10 µM	> 10 µM	> 10 µM	> 10 µM	0	0	0	0	0	97.9%	97.4%	94.7%	99.1%	94.7%	100%	105%	100%	105%	96%	99.5%	98.5%	97.7%	96.1%	93.8%	104%	98.3%	109%	86.6%	99.6%	92.5%	99.2%	96.7%	101%	94.4%
C=CCN1CC[C@]23c4c5ccc(O)c4O[C@H]2/C(=N/NC(=O)c2ccccc2)CC[C@@]3(O)[C@H]1C5 [naloxone-benzoylhydrazone]	> 10 µM	> 10 µM	> 10 µM	> 10 µM	> 10 µM	0	0	0	0	0	100%	101%	97.4%	103%	105%	91.7%	93.8%	101%	94.7%	112%	97.9%	102%	102%	97.2%	107%	101%	99.5%	102%	96.4%	101%	95.4%	95.8%	89.4%	103%	112%
NCC1CC(=O)N(Cc2ccccc2)C1 (stereo not given) [nebracetam]	> 10 µM	> 10 µM	> 10 µM	> 10 µM	> 10 µM	0	0	0	0	0	97.4%	104%	95.7%	100%	104%	87%	91.8%	84.4%	97.8%	99.7%	94.5%	93.6%	97.8%	91.4%	108%	109%	108%	92.8%	96.6%	98.5%	99.7%	96.3%	93.1%	94.4%	107%
CNC(=O)c1c(-c2ccc(F)cc2)oc2cc(N(CCO)S(C)(=O)=O)c(C3CC3)cc12 [nesbuvir]	> 10 µM	> 10 µM	> 10 µM	> 10 µM	> 10 µM	0	0	0	0	0	93.3%	102%	96.4%	99.9%	102%	94%	101%	95%	99%	101%	98.4%	97%	98.6%	93.6%	103%	97.3%	90%	103%	92.2%	107%	108%	107%	99.9%	110%	103%
Cc1ccccc1-c1cc(N2CCN(C)CC2)ncc1N(C)C(=O)C(C)(C)c1cc(C(F)(F)F)cc(C(F)(F)F)c1 [netupitant]	> 10 µM	> 10 µM	> 10 µM	> 10 µM	> 10 µM	0	0	0	0	0	102%	99%	101%	99.4%	96.5%	93.2%	92.6%	91.5%	96%	95.2%	106%	108%	103%	104%	97.5%	95%	98.2%	104%	97.9%	95.6%	94.8%	101%	105%	112%	102%
CO[C@H]1C[C@H](O[C@H]2CC[C@@]3(C)[C@H](CC[C@@H]4[C@@H]3CC[C@]3(C)[C@@H](C5=CC(=O)OC5)[C@@H](OC(C)=O)C[C@]43O)C2)O[C@@H](C)[C@@H]1O [oleandrin]	0.0334 µM	0.0155 µM	0.0214 µM	0.0769 µM	0.0355 µM	28.1	28.6	32.3	24.1	24.5	104%	98.4%	10.8%	7.3%	9.5%	98.1%	79.5%	17.8%	19.5%	20.9%	101%	87.5%	1.1%	1.1%	1.3%	102%	107%	38.1%	7.4%	6.4%	102%	89.3%	31.6%	18.4%	17.4%
